Consider 15 molecules from patent publication US20240270821A1, “GIP/GLP1/GCG TRI-RECEPTOR AGONISTS AND USES THEREOF” (priority 2023, published 2024).

Where two headings read alike, the source gives them in different places. Starred links: 1 amine or outer side, 2 acyl side, 3 side chain; linkers in the order of their positions; H or OH if unused. Non-standard residues stand in square brackets, D forms with d. Groups on a side chain read outwards from the residue. No end group written: not given here. *: point of attachment. C20 diacid = O=C(O)CCCCCCCCCCCCCCCCCCC(=O)*; C18 diacid = O=C(O)CCCCCCCCCCCCCCCCC(=O)*; Phe(4-CN) = N#Cc1ccc(C[C@H](N)C(=O)O)cc1; αMePhe(2-F) = C[C@](N)(Cc1ccccc1F)C(=O)O; γGlu = O=C(O)[C@H](CCC(=O)[*:2])N[*:1]; αMe4Pal = C[C@](N)(Cc1ccncc1)C(=O)O; αMeY = C[C@](N)(Cc1ccc(O)cc1)C(=O)O; αMeF = C[C@](N)(Cc1ccccc1)C(=O)O; 4Pal = N[C@@H](Cc1ccncc1)C(=O)O; αMeL = CC(C)C[C@](C)(N)C(=O)O; αMeS = C[C@](N)(CO)C(=O)O; Orn = NCCC[C@H](N)C(=O)O; AEEA = NCCOCCOCC(=O)O; Aib = CC(C)(N)C(=O)O

Holding throughout (type): cell-based
The target in test [1] is human GcgR (Homo sapiens, UniProt P47871). In words: Functional cAMP activity in the presence of 1% HSA. Conditions: read-out: cAMP Rel EC50, hGcgR.
The target of test [2] is T1, hGLP-1R (Homo sapiens, UniProt P43220). Description: Functional cAMP activation in the presence of 0.1% casein (no HSA). The note with it: read-out: Relative cAMP EC50, hGLP-1R.
For test [3], the target named is hGcgR (Homo sapiens, UniProt P47871). The test is described as above. The note with it: read-out: Relative cAMP EC50, hGcgR.
Test [4] concerns the target T1, hGLP-1R. Description: Functional cAMP activity in the presence of 1% HSA. The note with it: read-out: cAMP Rel EC50, hGLP-1R.
Test [5] has as its target T2, hGIPR (Homo sapiens, UniProt P48546).
T2 sequence (P48546 22-466): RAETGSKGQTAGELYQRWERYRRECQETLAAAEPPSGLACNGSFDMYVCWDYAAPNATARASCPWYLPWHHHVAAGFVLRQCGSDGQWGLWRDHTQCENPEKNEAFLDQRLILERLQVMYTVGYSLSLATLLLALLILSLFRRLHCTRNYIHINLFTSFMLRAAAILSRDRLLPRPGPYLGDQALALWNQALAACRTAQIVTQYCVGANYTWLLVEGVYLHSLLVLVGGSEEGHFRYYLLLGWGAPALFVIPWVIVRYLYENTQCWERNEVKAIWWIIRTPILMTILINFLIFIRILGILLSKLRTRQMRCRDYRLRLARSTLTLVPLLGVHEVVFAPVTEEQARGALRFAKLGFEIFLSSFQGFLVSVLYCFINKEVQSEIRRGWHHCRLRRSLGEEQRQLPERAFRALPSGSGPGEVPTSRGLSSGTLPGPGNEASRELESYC
In words: Functional cAMP activation in the presence of 0.1% casein (no HSA). Conditions: read-out: Relative cAMP EC50, hGIPR.

Test [6] concerns the target T2, hGIPR. In words: Functional cAMP activity in the presence of 1% HSA. The note with it: read-out: cAMP Rel EC50, hGIPR.
Setting [7] is: in the presence of 0.1% casein (no HSA), geometric mean.
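Wherever Relative cAMP EC50, hGIPR is given: intracellular cAMP rise after 30 min at 37 °C read by HTRF against a standard curve, scaled between buffer alone (0%) and top control ligand concentration (100%), four-parameter fit.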
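Wherever Relative cAMP EC50, hGLP-1R is given: intracellular cAMP rise after 30 min at 37 °C read by HTRF, normalized between buffer only (0%) and maximal control ligand (100%), four-parameter variable-slope fit.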
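Wherever Relative cAMP EC50, hGcgR is given: intracellular cAMP rise after 30 min at 37 °C, read by HTRF against a cAMP standard curve, scaled from buffer only (0%) to maximal control ligand response (100%).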

human GcgR, sequence (P47871 26-477): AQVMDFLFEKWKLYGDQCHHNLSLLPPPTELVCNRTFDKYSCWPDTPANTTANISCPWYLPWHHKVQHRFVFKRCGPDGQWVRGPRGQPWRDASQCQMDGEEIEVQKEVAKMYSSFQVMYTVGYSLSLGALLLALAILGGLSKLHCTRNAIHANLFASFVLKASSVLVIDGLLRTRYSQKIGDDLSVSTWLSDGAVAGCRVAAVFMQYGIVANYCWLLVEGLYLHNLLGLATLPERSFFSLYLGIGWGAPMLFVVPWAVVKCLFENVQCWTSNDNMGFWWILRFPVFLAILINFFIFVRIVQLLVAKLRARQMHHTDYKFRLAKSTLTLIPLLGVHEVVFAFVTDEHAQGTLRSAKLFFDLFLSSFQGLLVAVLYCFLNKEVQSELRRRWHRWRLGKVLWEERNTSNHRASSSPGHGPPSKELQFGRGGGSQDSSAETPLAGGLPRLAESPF
hGcgR, sequence (P47871 26-477): as above
T1 sequence (P43220 24-463): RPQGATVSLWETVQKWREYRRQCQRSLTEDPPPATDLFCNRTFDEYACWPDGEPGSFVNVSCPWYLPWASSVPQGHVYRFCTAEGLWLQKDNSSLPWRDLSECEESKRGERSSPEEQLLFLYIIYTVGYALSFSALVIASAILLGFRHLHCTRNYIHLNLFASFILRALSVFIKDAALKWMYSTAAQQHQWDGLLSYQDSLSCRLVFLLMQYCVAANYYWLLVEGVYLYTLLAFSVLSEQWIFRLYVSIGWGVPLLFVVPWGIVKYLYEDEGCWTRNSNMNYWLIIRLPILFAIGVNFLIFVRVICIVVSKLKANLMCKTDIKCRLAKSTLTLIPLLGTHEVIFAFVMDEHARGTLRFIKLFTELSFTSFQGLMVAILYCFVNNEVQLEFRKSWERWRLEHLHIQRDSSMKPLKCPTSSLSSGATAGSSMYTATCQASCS

For the molecule “Y[Aib]QGTFTSD[4Pal]SQ[αMeL]LDKK([Glu-Glu-γGlu-C18 diacid])AQ[αMe4Pal]AFIEYLIE[Aib]GPSSGAPPPSGS-NH2 [Example 895]”, the EC50 in test [1] was 1250 nM; in test [2] (setting [7]) it was 3.72 nM; in test [3] (setting [7]) it was 4.68 nM; in test [4], 599 nM; in test [5] (setting [7]) it was 0.111 nM; in test [6], 34 nM.

In the case of “Y[Aib]QGT[αMePhe(2-F)]TSD[4Pal][αMeS]I[αMeL]LD[Orn]K([AEEA-γGlu-C18 diacid])AA[Aib]EFI[dE][αMeY]LIEGGPSSGAPPPSGGGE-NH2 [Example 745]”, the EC50 in test [1] was found to be 266 nM; in test [2], 0.212 nM; in test [3] it was 1.86 nM; in test [4], 29 nM; in test [5], 0.012 nM; in test [6], 1.36 nM.

Turning to “H-Y[Aib]QGTFTSD[4Pal]SQ[αMeL]LD[Orn]K([Glu-γGlu-C18 diacid])AQ[αMe4Pal]AFIQ[αMeY]LIEGGPSSGAPPPSGSEEE-NH2 [Example 1077]”, the EC50 in test [1] was found to be 3160 nM; in test [2] (setting [7]), 1.48 nM; in test [3] (setting [7]), 18.8 nM; in test [4], 408 nM; in test [5] (setting [7]) it was 0.23 nM; in test [6] it was 27.8 nM.

With “H-Y[Aib]QGT[αMeF]TSD[4Pal][αMeS]I[αMeL]LD[Orn]K([γGlu-γGlu-C18 diacid])AQ[αMe4Pal]EFI[dE][αMeY]LIEGGPSSGEPPPSGE-NH2 [Example 1171]”, the EC50 was determined as 233 nM in test [1]; 0.529 nM in test [2] (setting [7]); 2.19 nM in test [3] (setting [7]); 52.9 nM in test [4]; 0.00953 nM in test [5] (setting [7]); 0.718 nM in test [6].

Turning to “H-Y[Aib]QGT[αMePhe(2-F)]TSD[4Pal]SILLDKK([γGlu-γGlu-C18 diacid])AQ[Aib]AFIEYLEEGGPSSGAPPPSGSGE-NH2 [Example 618]”, the EC50 in test [1] stood at 691 nM; in test [2] it was 1.53 nM; in test [3], 5.57 nM; in test [4], 88.9 nM; in test [5] it was 0.0418 nM; in test [6] it was 4.63 nM.

For “H-Y[Aib]QGTFTSDFS[Orn][αMeL]LDKK([γGlu-γGlu-C18 diacid])AQ[Aib]AFIEYLLEGGPSS[Aib]APPPGGS-NH2 [Example 770]”, the EC50 in test [1] was determined as 390 nM; in test [2], 3.91 nM; in test [3] it was 5.37 nM; in test [4], 240 nM; in test [5], 0.244 nM; in test [6], 18.2 nM.

For “H-Y[Aib]QGTFTSD[Phe(4-CN)]S[Orn][αMeL]LDKK([AEEA-AEEA-γGlu-C18 diacid])AQ[Aib]AFIEYLLE[Aib]GPSSGAPPPSGS-NH2 [Example 178]”, the EC50 in test [1] came to 816 nM; in test [2] (setting [7]), 4.01 nM; in test [3] (setting [7]), 7.29 nM; in test [4], 397 nM; in test [5] (setting [7]), 0.34 nM; in test [6], 47.3 nM.

Regarding “Y[Aib]QGTFTSD[4Pal]SQ[αMeL]LDKK([dE-dE-γGlu-C18 diacid])AQ[αMe4Pal]AFIEYLIE[Aib]GPSSGAPPPSGSE-NH2 [Example 925]”, the EC50 in test [1] is 2500 nM; in test [2] (setting [7]), 4.19 nM; in test [3] (setting [7]), 8.19 nM; in test [4], 708 nM; in test [5] (setting [7]), 0.147 nM; in test [6], 23 nM.

Turning to “H-Y[Aib]QGT[αMePhe(2-F)]TSD[4Pal][αMeS]I[αMeL]LD[Orn]K([γGlu-γGlu-C18 diacid])AQ[Aib][Orn]FI[dE][αMeY]LSEGGPSSGEPPPSGTE-NH2 [Example 517]”, the EC50 came to 337 nM in test [1]; 0.646 nM in test [2]; 4.69 nM in test [3]; 50 nM in test [4]; 0.158 nM in test [5]; 9.12 nM in test [6].

In the case of “H-Y[Aib]QGTFTSD[4Pal]SQ[αMeL]LDKK([γGlu-γGlu-C18 diacid])AQ[αMe4Pal]AFIEYLIE[Aib]GPSSGAPPPSGSGE-NH2 [Example 891]”, the EC50 was determined as 581 nM in test [1]; 3.25 nM in test [2] (setting [7]); 3.14 nM in test [3] (setting [7]); 330 nM in test [4]; 0.155 nM in test [5] (setting [7]); 16 nM in test [6].

Regarding “H-Y[Aib]QGTFTSDFS[Orn][αMeL]LDKK([γGlu-γGlu-C18 diacid])AQ[Aib]AFIEYLLE[Aib]GPSSGAPPPSGS-NH2 [Example 201]”, the EC50 in test [1] came to 969 nM; in test [2] (setting [7]) it was 3.16 nM; in test [3] (setting [7]), 3.84 nM; in test [4], 679 nM; in test [5] (setting [7]), 0.0553 nM; in test [6], 14.3 nM.

For `CC[C@H](C)[C@H](NC(=O)[C@H](CC(C)C)NC(=O)[C@H](Cc1ccc(O)cc1)NC(=O)[C@H](CCC(=O)O)NC(=O)[C@@H](NC(=O)[C@H](Cc1ccccc1)NC(=O)[C@H](C)NC(=O)[C@](C)(Cc1ccncc1)NC(=O)[C@H](CCC(N)=O)NC(=O)[C@H](C)NC(=O)[C@H](CCCCNC(=O)COCCOCCNC(=O)CC[C@H](NC(=O)CC[C@H](NC(=O)CCCCCCCCCCCCCCCCC(=O)O)C(=O)O)C(=O)O)NC(=O)[C@H](CCCCN)NC(=O)[C@H](CC(=O)O)NC(=O)[C@H](CC(C)C)NC(=O)[C@](C)(CC(C)C)NC(=O)[C@H](CCC(N)=O)NC(=O)[C@H](CO)NC(=O)[C@H](Cc1ccncc1)NC(=O)[C@H](CC(=O)O)NC(=O)[C@H](CO)NC(=O)[C@@H](NC(=O)[C@H](Cc1ccccc1)NC(=O)[C@@H](NC(=O)CNC(=O)[C@H](CCC(N)=O)NC(=O)C(C)(C)NC(=O)[C@@H](N)Cc1ccc(O)cc1)[C@@H](C)O)[C@@H](C)O)[C@@H](C)CC)C(=O)N[C@@H](C)C(=O)NCC(=O)NCC(=O)N1CCC[C@H]1C(=O)N[C@@H](CO)C(=O)N[C@@H](CO)C(=O)NCC(=O)N[C@@H](C)C(=O)N1CCC[C@H]1C(=O)N1CCC[C@H]1C(=O)N1CCC[C@H]1C(=O)N[C@@H](CO)C(=O)NCC(=O)N[C@@H](CO)C(N)=O` [Example 869], the EC50 in test [1] turned out to be 571 nM; in test [2] (setting [7]) it was 2 nM; in test [3] (setting [7]), 9.94 nM; in test [4], 114 nM; in test [5] (setting [7]), 0.142 nM; in test [6], 14.1 nM.

“H-Y[Aib]QGTFTSDFS[Orn][αMeL]LDKK([AEEA-γGlu-C20 diacid])AQ[Aib]AFIEYLLE[Aib]GPSSGAPPPSEG-NH2 [Example 61]”: the EC50 in test [1] is 1310 nM; in test [2] (setting [7]) it was 2.05 nM; in test [3] (setting [7]), 3.57 nM; in test [4], 704 nM; in test [5] (setting [7]), 0.122 nM; in test [6] it was 55.2 nM.

In the case of “H-Y[Aib]QGT[αMePhe(2-F)]TSD[4Pal][αMeS]I[αMeL]LD[Orn]K([γGlu-γGlu-C18 diacid])AQ[αMe4Pal]EFI[dE][αMeY]LVEGGPSSGEPPPSGSE-NH2 [Example 1163]”, the EC50 was 163 nM in test [1]; 0.449 nM in test [2] (setting [7]); 1.75 nM in test [3] (setting [7]); 35.4 nM in test [4]; 0.00951 nM in test [5] (setting [7]); 0.721 nM in test [6].

“H-Y[Aib]QGT[αMePhe(2-F)]TSD[4Pal]SI[αMeL]LD[Orn]K([AEEA-γGlu-C18 diacid])AQ[αMe4Pal][Orn]FI[dE][αMeY]LIEGGPSSGEPPPEGTGE-NH2 [Example 680]”: the EC50 in test [1] was 256 nM; in test [2], 0.246 nM; in test [3] it was 2 nM; in test [4], 28.6 nM; in test [5] it was 0.01 nM; in test [6] it was 1.04 nM.

One may read the EC50 as the concentration giving half of the maximal effect.
